Source: US20240307507A1, “LACTOFERRIN COMPOSITIONS AND METHODS OF USE” (LACTEA THERAPEUTICS LLC, priority 2021, published 2024)

System: SARS-COV-2
Experiment: SARS-COV-2 Cytopathic Effect (CPE) reduction assay in Vero E6 cells
Assay type: cell-based
Settings: Severe acute respiratory syndrome coronavirus 2, Vero C1008, 72 h

Work on `CCC(CC)COC(=O)[C@H](C)N[P@](=O)(OC[C@H]1O[C@@](C#N)(c2ccc3c(N)ncnn23)[C@H](O)[C@@H]1O)Oc1ccccc1` [Remdesivir, reference compound] yielded an EC50 of 4.5 µM.
